Source: ChEMBL document CHEMBL4699460, “Integrating DNA-encoded chemical libraries with virtual combinatorial library screening: Optimizing a PARP10 inhibitor” (Bioorg Med Chem Lett, 2020)

What was measured:
[1] = biological target: Protein mono-ADP-ribosyltransferase PARP14 (Homo sapiens) (UniProt Q460N5); assay: (§1) Inhibition of N-terminal His-GST tagged human PARP14 (1470 to 1801 residues) expressed in baculovirus infected Sf9 cells assessed as reduction in NAD+-dependent ADP ribosylation using histone as substrate at 1 uM incubated for 1 hr in presence of biotinylated NAD+ and activated DNA by chemiluminescence based microplate reader assay relative to control
[2] = biological target: T1, Protein mono-ADP-ribosyltransferase PARP15 (Homo sapiens) (UniProt Q460N3); assay: Inhibition of N-terminal GST-tagged human PARP15 (221 to 444 residues) expressed in Escherichia coli assessed as reduction in NAD+-dependent ADP ribosylation using histone as substrate at 10 uM incubated for 1 hr in presence of biotinylated NAD+ and activated DNA by chemiluminescence based microplate reader assay relative to control
T1 sequence (whole entry): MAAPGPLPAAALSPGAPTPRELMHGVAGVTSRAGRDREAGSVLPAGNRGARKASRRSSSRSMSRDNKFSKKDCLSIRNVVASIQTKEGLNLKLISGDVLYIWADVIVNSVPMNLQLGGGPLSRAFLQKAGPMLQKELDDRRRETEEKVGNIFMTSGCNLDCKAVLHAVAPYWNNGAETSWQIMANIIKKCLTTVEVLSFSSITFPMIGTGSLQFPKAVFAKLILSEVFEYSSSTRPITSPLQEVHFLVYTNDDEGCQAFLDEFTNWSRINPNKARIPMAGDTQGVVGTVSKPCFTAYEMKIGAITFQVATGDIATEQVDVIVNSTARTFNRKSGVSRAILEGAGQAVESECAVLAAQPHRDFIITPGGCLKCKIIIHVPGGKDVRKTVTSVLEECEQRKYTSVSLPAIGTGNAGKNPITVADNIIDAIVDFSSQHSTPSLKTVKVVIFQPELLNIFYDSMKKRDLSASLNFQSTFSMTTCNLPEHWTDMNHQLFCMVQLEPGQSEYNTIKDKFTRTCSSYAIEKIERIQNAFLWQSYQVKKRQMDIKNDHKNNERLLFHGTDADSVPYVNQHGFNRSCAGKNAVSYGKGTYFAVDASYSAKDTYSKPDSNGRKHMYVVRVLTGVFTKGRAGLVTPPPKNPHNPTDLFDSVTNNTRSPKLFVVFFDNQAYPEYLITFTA

[3] = biological target: Protein mono-ADP-ribosyltransferase PARP6 (Homo sapiens) (UniProt Q2NL67); assay: as §1, with “N-terminal GST” for “N-terminal His-GST”, “tagged full length” for “tagged”, “human PARP6” for “human PARP14 (1470 to 1801 residues)”, “at 10” for “at 1”
[4] = biological target: T2, Protein mono-ADP-ribosyltransferase PARP10 (Homo sapiens) (UniProt Q53GL7); assay: as §1, with “N-terminal FLAG-tagged and C-terminal strep-tagged” for “N-terminal His-GST tagged”, “human PARP10 (805” for “human PARP14 (1470”, “to 1025” for “to 1801”, “at 10” for “at 1”
T2 sequence (whole entry): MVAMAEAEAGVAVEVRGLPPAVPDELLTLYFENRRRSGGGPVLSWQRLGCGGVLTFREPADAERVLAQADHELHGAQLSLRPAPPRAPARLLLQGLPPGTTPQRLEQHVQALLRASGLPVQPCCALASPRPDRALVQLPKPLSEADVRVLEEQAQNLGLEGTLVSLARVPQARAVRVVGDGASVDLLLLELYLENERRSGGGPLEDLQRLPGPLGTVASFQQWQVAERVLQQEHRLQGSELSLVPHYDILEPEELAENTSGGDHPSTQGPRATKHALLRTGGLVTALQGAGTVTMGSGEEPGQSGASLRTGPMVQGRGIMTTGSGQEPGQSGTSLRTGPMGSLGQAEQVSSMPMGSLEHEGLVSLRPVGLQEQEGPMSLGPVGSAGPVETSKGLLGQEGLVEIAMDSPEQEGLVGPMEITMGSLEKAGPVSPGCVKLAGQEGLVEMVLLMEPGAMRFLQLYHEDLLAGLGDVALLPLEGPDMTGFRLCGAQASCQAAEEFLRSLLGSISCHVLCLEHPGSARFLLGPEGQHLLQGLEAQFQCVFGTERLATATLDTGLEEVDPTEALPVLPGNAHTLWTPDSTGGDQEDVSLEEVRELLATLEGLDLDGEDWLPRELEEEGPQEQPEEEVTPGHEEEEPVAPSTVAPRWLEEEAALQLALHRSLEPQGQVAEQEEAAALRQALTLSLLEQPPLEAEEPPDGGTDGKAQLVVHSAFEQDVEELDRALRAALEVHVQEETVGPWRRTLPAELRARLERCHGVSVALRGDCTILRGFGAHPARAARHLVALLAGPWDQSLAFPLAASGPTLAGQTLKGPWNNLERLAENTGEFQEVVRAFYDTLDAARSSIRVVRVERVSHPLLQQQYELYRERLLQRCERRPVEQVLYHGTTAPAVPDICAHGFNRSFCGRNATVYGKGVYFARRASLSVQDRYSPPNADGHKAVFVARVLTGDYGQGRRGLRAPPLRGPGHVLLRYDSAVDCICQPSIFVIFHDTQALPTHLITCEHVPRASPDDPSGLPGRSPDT

[5] = biological target: Poly [ADP-ribose] polymerase 1 (Homo sapiens) (UniProt P09874); assay: as §1, with “N-terminal GST” for “N-terminal His-GST”, “human PARP1 (2” for “human PARP14 (1470”, “to 1041” for “to 1801”, “at 10” for “at 1”
[6] = biological target: T2, Protein mono-ADP-ribosyltransferase PARP10 (Homo sapiens); assay: as §1, with “FLAG-tagged and C-terminal strep-tagged” for “His-GST tagged”, “PARP10 (805” for “PARP14 (1470”, “1025” for “1801”, “assay” for “assay relative to control”
[7] = biological target: Protein mono-ADP-ribosyltransferase PARP14 (Homo sapiens) (UniProt Q460N5); assay: as §1, with “at 10” for “at 1”

Chain of Protein mono-ADP-ribosyltransferase PARP6 (Homo sapiens) (Q2NL67 whole entry, the tested form may be a part): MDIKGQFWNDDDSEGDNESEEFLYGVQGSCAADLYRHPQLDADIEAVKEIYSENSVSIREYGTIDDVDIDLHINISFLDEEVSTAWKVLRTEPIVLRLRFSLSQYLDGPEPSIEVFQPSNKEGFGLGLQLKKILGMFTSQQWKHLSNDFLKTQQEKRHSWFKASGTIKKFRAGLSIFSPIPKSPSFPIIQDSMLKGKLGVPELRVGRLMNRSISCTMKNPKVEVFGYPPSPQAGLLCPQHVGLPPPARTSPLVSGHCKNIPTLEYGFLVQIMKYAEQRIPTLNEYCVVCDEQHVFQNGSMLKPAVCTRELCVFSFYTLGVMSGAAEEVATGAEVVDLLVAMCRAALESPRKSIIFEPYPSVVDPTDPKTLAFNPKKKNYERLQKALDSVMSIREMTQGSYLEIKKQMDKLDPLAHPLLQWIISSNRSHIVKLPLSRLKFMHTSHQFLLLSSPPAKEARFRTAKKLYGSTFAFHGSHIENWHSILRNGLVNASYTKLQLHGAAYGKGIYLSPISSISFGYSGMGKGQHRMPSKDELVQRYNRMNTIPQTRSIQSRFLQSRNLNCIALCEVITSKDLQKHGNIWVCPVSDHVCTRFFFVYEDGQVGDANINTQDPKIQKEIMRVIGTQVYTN
Chain of Poly [ADP-ribose] polymerase 1 (Homo sapiens) (P09874 whole entry): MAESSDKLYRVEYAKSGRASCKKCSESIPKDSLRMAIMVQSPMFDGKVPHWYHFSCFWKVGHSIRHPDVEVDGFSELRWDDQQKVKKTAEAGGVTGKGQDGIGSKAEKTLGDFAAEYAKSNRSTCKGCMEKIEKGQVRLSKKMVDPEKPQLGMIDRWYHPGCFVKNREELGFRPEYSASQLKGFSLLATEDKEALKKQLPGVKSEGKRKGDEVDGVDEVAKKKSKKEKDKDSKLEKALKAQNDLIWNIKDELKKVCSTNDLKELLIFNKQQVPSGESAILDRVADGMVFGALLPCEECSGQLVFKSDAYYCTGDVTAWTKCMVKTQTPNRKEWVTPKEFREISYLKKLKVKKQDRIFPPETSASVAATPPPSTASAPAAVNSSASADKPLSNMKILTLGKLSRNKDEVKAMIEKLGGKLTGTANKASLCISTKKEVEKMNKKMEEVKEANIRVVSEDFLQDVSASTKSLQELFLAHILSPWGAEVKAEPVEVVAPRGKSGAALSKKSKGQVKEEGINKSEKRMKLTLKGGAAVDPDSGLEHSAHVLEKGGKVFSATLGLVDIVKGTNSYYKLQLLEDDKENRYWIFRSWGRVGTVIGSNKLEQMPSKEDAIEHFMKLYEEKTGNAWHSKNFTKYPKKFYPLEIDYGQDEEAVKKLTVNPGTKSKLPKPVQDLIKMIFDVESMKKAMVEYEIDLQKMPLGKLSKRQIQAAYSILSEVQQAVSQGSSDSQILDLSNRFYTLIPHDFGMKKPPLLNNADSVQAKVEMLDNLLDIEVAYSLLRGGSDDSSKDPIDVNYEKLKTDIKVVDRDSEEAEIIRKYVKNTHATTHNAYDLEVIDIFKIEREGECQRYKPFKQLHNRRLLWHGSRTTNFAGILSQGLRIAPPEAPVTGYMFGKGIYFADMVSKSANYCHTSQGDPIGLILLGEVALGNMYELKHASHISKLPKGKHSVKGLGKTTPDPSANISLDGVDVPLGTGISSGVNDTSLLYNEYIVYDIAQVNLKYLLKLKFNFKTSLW
Chain of Protein mono-ADP-ribosyltransferase PARP14 (Homo sapiens) (Q460N5 whole entry, the tested form may be a part): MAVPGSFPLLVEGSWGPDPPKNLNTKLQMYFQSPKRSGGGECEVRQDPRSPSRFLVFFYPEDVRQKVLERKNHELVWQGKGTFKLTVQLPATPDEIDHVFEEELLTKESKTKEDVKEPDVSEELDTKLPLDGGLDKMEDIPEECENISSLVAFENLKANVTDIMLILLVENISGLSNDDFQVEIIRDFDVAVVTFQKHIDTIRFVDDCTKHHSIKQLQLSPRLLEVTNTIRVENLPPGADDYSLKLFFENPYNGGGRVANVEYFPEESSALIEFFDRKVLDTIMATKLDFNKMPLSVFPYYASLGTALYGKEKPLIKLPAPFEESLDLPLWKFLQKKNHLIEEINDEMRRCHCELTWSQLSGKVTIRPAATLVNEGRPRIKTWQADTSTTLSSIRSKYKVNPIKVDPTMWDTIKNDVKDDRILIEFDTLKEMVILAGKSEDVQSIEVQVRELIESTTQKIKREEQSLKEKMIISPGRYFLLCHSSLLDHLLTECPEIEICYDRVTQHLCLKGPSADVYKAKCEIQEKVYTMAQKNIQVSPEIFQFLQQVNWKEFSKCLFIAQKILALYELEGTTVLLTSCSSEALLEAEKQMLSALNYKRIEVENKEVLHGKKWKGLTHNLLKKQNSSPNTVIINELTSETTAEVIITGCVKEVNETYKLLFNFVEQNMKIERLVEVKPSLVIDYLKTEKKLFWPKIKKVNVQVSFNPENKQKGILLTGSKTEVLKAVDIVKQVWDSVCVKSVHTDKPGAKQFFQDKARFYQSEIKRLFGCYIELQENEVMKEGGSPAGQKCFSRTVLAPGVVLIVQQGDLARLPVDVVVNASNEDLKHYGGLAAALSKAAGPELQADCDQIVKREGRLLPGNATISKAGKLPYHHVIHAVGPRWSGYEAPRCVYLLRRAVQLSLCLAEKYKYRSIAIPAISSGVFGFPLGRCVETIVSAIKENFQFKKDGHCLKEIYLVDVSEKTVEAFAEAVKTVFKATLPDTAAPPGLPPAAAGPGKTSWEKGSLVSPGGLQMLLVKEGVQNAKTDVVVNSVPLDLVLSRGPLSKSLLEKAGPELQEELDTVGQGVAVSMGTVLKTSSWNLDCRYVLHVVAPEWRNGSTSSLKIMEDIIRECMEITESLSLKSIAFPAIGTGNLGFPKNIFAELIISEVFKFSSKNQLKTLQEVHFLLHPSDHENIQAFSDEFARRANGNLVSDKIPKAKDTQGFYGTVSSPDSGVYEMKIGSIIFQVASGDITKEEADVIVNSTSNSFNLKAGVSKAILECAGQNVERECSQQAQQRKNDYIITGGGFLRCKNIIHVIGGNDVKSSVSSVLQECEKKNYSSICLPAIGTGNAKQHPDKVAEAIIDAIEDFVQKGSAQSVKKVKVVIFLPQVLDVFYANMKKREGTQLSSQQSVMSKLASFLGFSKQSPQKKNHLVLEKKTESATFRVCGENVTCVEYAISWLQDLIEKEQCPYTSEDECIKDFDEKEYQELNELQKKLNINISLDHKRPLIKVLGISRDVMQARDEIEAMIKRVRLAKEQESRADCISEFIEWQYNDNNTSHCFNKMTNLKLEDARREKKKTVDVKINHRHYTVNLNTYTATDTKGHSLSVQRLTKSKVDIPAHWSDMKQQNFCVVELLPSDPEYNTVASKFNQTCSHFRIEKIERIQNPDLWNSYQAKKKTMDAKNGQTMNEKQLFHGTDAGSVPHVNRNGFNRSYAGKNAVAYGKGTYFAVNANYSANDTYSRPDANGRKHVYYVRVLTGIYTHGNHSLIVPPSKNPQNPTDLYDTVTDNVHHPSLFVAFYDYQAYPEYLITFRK

| SMILES | inhibition [1] [%] | inhibition [2] [%] | inhibition [3] [%] | inhibition [4] [%] | inhibition [5] [%] | inhibition [6] [%] | inhibition [7] [%] |
| --- | --- | --- | --- | --- | --- | --- | --- |
| CC1(CNC(=O)COc2cccc3c2CCCC3=O)CCN(C(=O)CCc2nc3ccccc3[nH]c2=O)CC1 | 21 | 10 | 0 | 90 | > 50 | 25 | – |
| CNC(=O)[C@H](CNC(=O)CCc1nc2ccccc2[nH]c1=O)NC(=O)c1ccc2c(c1)CCCC2=O | – | < 25 | < 25 | – | < 25 | – | < 25 |
